According to patent publication US8470772B2, “Leptin agonist and methods of use” (Temple University—Of The Commonwealth System of Higher …, priority 2008, dated 2013):
Non-standard residues stand in square brackets, D forms with d. No end group written: not given here. *: point of attachment. βGlc = OC[C@H]1O[C@@H](*)[C@H](O)[C@@H](O)[C@@H]1O; Tyr(3,5-I2) = N[C@@H](Cc1cc(I)c(O)c(I)c1)C(=O)O; Dap = NC[C@H](N)C(=O)O

Legend:
[1] = biological target: T1, ObR extracellular domain (Homo sapiens, UniProt P48357); experiment: Dot-blot and ELISA-type solid-phase binding assay; conditions: dot-blot, Western-blot or ELISA; 10 and 20 μg peptide load in ELISA
T1 construct: human IgG Fc-conjugated ObR extracellular domain (R&D Systems); purchased R&D Systems
T1 sequence (P48357 22-839 limits assumed): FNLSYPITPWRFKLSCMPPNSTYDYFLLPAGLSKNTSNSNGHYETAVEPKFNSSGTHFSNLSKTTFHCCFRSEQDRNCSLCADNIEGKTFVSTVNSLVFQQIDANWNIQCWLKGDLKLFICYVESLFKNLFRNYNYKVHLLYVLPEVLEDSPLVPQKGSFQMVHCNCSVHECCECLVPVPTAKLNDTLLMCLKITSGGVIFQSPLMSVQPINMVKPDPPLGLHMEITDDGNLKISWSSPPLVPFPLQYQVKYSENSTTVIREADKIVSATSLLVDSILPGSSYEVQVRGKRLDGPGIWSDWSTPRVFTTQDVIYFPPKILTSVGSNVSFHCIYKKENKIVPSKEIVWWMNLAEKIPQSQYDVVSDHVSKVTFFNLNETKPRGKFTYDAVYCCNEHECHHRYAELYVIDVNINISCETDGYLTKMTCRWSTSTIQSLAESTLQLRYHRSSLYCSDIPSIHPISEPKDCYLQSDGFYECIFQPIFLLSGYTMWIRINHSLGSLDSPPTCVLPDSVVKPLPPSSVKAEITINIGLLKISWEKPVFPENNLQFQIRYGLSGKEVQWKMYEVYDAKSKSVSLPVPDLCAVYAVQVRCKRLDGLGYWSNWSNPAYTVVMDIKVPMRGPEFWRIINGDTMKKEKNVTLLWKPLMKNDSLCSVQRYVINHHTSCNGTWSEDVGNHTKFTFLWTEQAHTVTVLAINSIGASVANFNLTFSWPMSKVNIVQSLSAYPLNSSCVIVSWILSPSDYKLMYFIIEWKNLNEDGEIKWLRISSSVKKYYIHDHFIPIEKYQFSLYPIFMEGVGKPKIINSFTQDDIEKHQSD
Procedure: For dot-blot and ELISA assays, the leptin fragments were dissolved in electroblot transfer buffer (25 mM Tris and […] buffer containing 20% methanol) and were applied to either a nitrocellulose membrane or dried upon ELISA plates (Otvos, L., Jr., and Szendrei, G. I. (1996) Enzyme-linked immunosorbent assay of peptides. In: Neuropeptide Protocols (G. B. Irvine and C. H. Williams, eds.). Humana Press, Totowa, N.J., pp. 269-275). The solid surfaces were blocked with 5% BSA in a PBS-0.5% Tween 20 buffer (PBST) for 3 hours at room temperature and were subsequently incubated with 10 μg/mL solution of human IgG Fc-conjugated ObR extracellular domain (R&D Systems) dissolved in Tris-buffered saline-0.1% Tween 20 buffer (TBST) containing 1% bovine serum albumin (BSA) for 1 hour. A monoclonal goat antibody (Santa Cruz Biotechnology), specific for the N-terminus of human ObR, was added to the assay mixture, followed by addition of a horseradish peroxidase(HRP)-conjugated anti-goat IgG donkey antibody for the dot-blot assay, and HRP-conjugated anti-goat Fc mouse antibody for ELISA assay (used at a 1:15,000 dilution in PBST and 1% BSA). Between reagents, the solid surfaces were washed extensively with PBST. After washing with PBST, the membrane was treated with a chemiluminescence luminol oxidizer (NEN) for 1 min. The resultant chemiluminescence was exposed to a X-Omat blue XB-1 film (Kodak) for 10 seconds, and the exposed film was developed. The ELISA was developed using an HRP ELISA kit including tetramethylbenzidine as a substrate and sulfuric acid as a stop solution. Optical absorbance values were read at 490 nm using a microplate reader.

[2] = In vivo biodistribution of DY675-labeled peptide by fluorescence imaging; conditions: intraperitoneal, female Balb/c mice, up to 65 minutes
Procedure: E1Free peptide was co-synthesized with the near-infrared absorbing fluorescent dye DY675 and the resultant labeled peptide was purified by RP-HPLC. Forty microgams of the peptide was injected intraperiotoneally into shaved and isoflurane anesthesized female Balb/c mice. For imaging of the biodistribution of the peptide, the animals were placed into a fluorescence microscope chamber under continuous isoflurane exposure. Fluorescence exposure pictures were taken with an IVIS microscope set to a 695 nm emission wavelength. Images were obtained once a minute for the first ten minutes after peptide addition and every five minutes afterwards, until a 65 minute stop point was reached.

[3] = tested on: ovariectomised (OVX) ewes; experiment: Voluntary food intake in animals with icv infusion; assay type: in vivo
Procedure: This experiment was conducted using ovariectomised (OVX) ewes (n=4/group: 55 kg). Ovariectomy removes cyclic effects of ovarian steroids, which affect sensitivity to leptin. The experiments were performed in an isolated room with an ambient temperature range of 17-22° C. […] peptide was administered to animals by way of Silastic cannulae introduced into the lateral cerebral ventricle (H8) for intracerebroventricular (icv) infusion. For infusion, pyrogen-free leptin peptide was dissolved in 0.1 mM HCl and diluted in artificial cerebrospinal fluid (aCSF) to a concentration of 10 μg/100 μl. All infusions were initiated at 0900 hours and control animals received an infusion of aCSF 100 μl/hour.

[4] = tested on: ERK1/2; experiment: ObR signaling assay: ERK1/2 phosphorylation in MCF-7 cells by Western blotting; assay type: cell-based, human
Procedure: MCF-7 cells were grown and treated with E1Free peptide and full-sized leptin as described for the cell stimulation assays elsewhere herein. Cells were lysed with SDS sample buffer and scraped off of the plate. DNA was sheared using sonication, after which the sample was heated to 95° C., centrifuged and, subjected to SDS-PAGE. After gel electrophoresis, the proteins were transferred to nitrocellulose membrane. The membrane was incubated with 5% milk as blocking buffer, followed by addition of rabbit polyclonal antibodies to phosphorylated or total ERK1/2 MAP kinases (1:500 dilution in TBST and 2% milk, Cell Signaling Technology). The expression of a constitutive Hsp72/74 protein was probed with mouse monoclonal antibodies to control protein loading (1:5,000 dilution in TBST and 3% milk Calbiochem). After extensive washing, the blots incubated with HRP-conjugated secondary anti-rabbit (1:1,000 in TBST and 2% milk, Santa Cruz Biotechnology) and anti-mouse (1:10,000 TBST and 3% milk, Amersham Biosciences) IgG antibodies produced in goats, and developed as described for the dot-blot above.

Tyr(I2)-Serβ(Glc)-Thr-Glu-Va1-Va1-Ala-Leu-Ser-Arg-Leu-Dap(Ac) ([Tyr(3,5-I2)]S(βGlc)TEVVALSRL[Dap](Ac)-NH2) [E1Free]
binding to the extracellular domain of ObR [1]: bound
biodistribution [2]: localizes in the head, as well as the kidneys and liver
reduction of voluntary food intake compared to controls (aCSF) ([3]; 10 μg/hour for 7 hours icv, program-fed OVX ewes, P<0.05): approx. 25%
effect on voluntary food intake ([3]; icv infusion, OVX ewes, over the course of two days): voluntarily reduce the amount of food taken in
peptide concentration of maximum observed ERK1/2 stimulation [4]: 200 nM
phosphorylation of ERK1/2 ([4]; total ERK1/2 steady): increased
